Experimental data: patent publication US7935847B2, “Nitroxyl ion source with second order reaction nitroxyl release” (Duke University, priority 2007, dated 2011)
Entries after “also recorded” stand apart in the source; their conditions may differ.

Legend:
[1] = tested on: congestive heart failure and a dilated cardiomyopathy; assay: Treatment of heart failure (Working Example IV); assay type: in vivo, human; conditions: person with congestive heart failure and dilated cardiomyopathy; intravenously, blood concentration of 10 nanomolar
Method: A person with congestive heart failure and a dilated cardiomyopathy is administered compound (II) intravenously (to obtain a blood concentration of 10 nanomolar). Their ejection fraction improves, their blood pressure decreases, and […] pO2 improves on room air. Symptoms of angina also decrease.

[2] = tested on: ischemic reperfusion injury; assay: Prevention of ischemic reperfusion injury (Working Example V); assay type: in vivo, human; conditions: person, heart attack, bypass surgery; intravenously, blood concentration of 10 nanomolar from 15 minutes before reperfusion up to 20 minutes thereafter
Method: A person presents with a heart attack. Blockage is treated with bypass surgery. The patient is give compound (II) intravenously to maintain a blood concentration of 10 nanomolar 15 minutes before reperfusion up to 20 minutes thereafter.

[3] = Isolability / rate of nitroxyl release on attempted synthesis; assay type: physicochemical; conditions: electron withdrawing group p-nitrophenyl; nitrosation of 4g with NaNO2 in glacial acetic acid
Method: It has been found herein that the rate of release is so fast, when the electron withdrawing group on the carbon acid is p-nitrophenyl, e.g., when the compound is (I) below.
The same would be true where the electron withdrawing group is nitro. Thus the compound of the invention excludes the cases where the electron withdrawing group is nitro or p-nitrophenyl.
A freshly prepared solution of aqueous 10M NaNO2 (0.59 ml, 5.9 mmol) is added dropwise with stirring to a cooled (ice/H2O bath) solution of (1.22 g, 4.9 mmol) 4g in glacial acetic acid (1.5 ml). Stirring is continued for 1 hour. The reaction mixture is diluted with the water (5 mL) and precipitates are filtered off at vacuum. The filter cake is washed with water (20 ml), hexane (20 ml) and dried under vacuum to give

| SMILES | blood pressure [1] | ejection fraction [1] | pO2 on room air [1] | symptoms of angina [1] | ischemic reperfusion injury [2] | stability / isolability (rate of nitroxyl release) [3] |
| --- | --- | --- | --- | --- | --- | --- |
| CC(=O)C(Cc1ccc(Br)cc1)(N=O)C(C)=O [Compound (II), 3-(4-bromobenzyl)-3-nitroso-2,4-pentanedione] | decreases | improves | improves | decrease | does not occur | – |
| CC(=O)C(Cc1ccc([N+](=O)[O-])cc1)(N=O)C(C)=O [Compound (I)] | – | – | – | – | – | cannot be isolated; also recorded: couldn't be isolated |
